Where “and” joins values, the source holds several entries; their conditions need not be identical. Identical values can stand only once.
Tests used:
Type in all cases: cell-based
Settings in all cases: 18-24 hrs
[1] = target: T1, PPARα (Homo sapiens, UniProt Q07869); assay: Transfection assay, GAL4-PPARα LBD luciferase reporter in HEK293 cells
T1 construct: expressed in transfected cells; host or cells: HEK293
T1 sequence (Q07869 239-466 limits assumed): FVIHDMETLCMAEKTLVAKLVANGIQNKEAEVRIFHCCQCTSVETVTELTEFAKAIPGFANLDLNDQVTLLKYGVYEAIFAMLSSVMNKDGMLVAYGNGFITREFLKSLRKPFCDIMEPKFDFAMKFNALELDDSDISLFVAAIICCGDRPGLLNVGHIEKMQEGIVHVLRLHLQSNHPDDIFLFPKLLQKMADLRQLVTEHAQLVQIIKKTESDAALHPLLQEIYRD
Method: (§1) HEK293 cells were grown in DMEM/F12 medium supplemented with 10% FBS and glutamine (Invitrogen) and incubated in a 5% CO2 incubator at 37° C. The cells were co-transfected using DMRIE-C reagent (Invitrogen) in serum free medium (Opti-MEM, Invitrogen) with two mammalian expression plasmids, one containing the DNA sequence coding for the ligand binding domains of either PPARα, γ or δ fused to the yeast GAL4 DNA binding domain and the other containing the promoter sequence of the yeast GAL4 (UAS) fused to the firefly luciferase cDNA reporter. The next day, the medium was changed to DMEM/F12 medium supplemented with 5% charcoal treated serum (Hyclone) and glutamine. After 6 hrs the cells were trypsinized and seeded at a density of 50,000 cells/well into 96 well plates and incubated overnight as above. The cells were then treated with test compounds or vehicle and incubated for 18-24 hrs as above. Luciferase reporter activity was measured using the Steady-Glo Luciferase Assay Kit from Promega. DMRIE-C Reagent was purchased from GIBCO Cat. No. 10459-014. OPTI-MEM I Reduced Serum Medium was purchased from GIBCO (Cat. No. 31985). Steady-Glo Luciferase Assay Kit was purchased from Promega (Part #E254B).
(§2) A variety of example compounds have been made and tested, with a range of in vitro results. Below, in Table 2, are representative compounds and data; in some cases, where multiple EC50's are shown, multiple measurements were taken. Naturally, different compounds in Formula (I) may have not activities identical to any one compound below.

[2] = target: T2, PPARγ (Homo sapiens, UniProt P37231); assay: Transfection assay, GAL4-PPARγ LBD luciferase reporter in HEK293 cells
T2 construct: expressed in transfected cells; host or cells: HEK293
T2 sequence (P37231 238-503 limits assumed): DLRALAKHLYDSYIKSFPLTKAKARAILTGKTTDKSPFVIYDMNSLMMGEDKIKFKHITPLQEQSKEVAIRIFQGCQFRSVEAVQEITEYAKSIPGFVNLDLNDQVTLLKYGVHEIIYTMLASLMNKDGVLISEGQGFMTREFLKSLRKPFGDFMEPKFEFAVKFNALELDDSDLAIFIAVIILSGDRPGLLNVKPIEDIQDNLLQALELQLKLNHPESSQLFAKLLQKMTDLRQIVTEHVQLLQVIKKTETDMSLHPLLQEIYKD
Method: as §1, §2

[3] = target: T3, PPARδ (Homo sapiens, UniProt Q03181); assay: Transfection assay, GAL4-PPARδ LBD luciferase reporter in HEK293 cells
T3 construct: expressed in transfected cells; host or cells: HEK293
T3 sequence (Q03181 211-439 limits assumed): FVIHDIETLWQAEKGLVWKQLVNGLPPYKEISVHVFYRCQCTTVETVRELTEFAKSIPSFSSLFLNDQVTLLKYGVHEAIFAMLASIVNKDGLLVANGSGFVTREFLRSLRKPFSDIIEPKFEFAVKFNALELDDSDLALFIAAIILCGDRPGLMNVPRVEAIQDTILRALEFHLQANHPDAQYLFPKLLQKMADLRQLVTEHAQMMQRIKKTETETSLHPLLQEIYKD
Method: as §1, §2

Row | EC50 [1] | EC50 [2] | EC50 [3] | SMILES
1 | > 1000 nM | > 3000 nM | 136 nM | O=C(O)COc1ccc2c(c1)CCN(Cc1cc(-c3ccc(C(F)(F)F)cc3)on1)CC2 [compound 11]
2 | > 3000 nM | > 3000 nM | > 1000 nM | O=C(O)COc1ccc2c(c1)CCN(Cc1cnn(-c3ccc(C(F)(F)F)cc3)c1)CC2 [compound 20]
3 | > 3000 nM | > 3000 nM | 169 nM | O=C(O)COc1ccc2c(c1)CCN(Cc1ccc(-c3ccc(Cl)cc3)o1)CC2 [compound 35]
4 | > 3000 nM | > 3000 nM | > 3000 nM | O=C(O)COc1ccc2c(c1)CCN(CCc1ccc(-c3ccc(C(F)(F)F)cc3)s1)CC2 [compound 22]
5 | > 3000 nM | > 3000 nM | 104 nM | Cc1c(-c2ccc(C(F)(F)F)cc2)csc1CN1CCc2ccc(OCC(=O)O)cc2CC1 [compound 15]
6 | > 3000 nM | > 3000 nM | 148 nM and 167 nM | O=C(O)COc1ccc2c(c1)CCN(Cc1ccc(-c3ccc(Cl)cc3Cl)o1)CC2 [compound 33]
7 | > 3000 nM | > 3000 nM | 5.3 nM | O=C(O)C1(Oc2ccc3c(c2)CCN(Cc2ccc(-c4ccc(C(F)(F)F)cc4)s2)CC3)CC1 [compound 37]
8 | > 3000 nM | > 3000 nM | 143 nM | O=C(O)COc1ccc2c(c1)CCN(Cc1nc(-c3ccc(C(F)(F)F)cc3)ns1)CC2 [compound 3]
9 | > 3000 nM | > 3000 nM | 51.6 nM | Cc1nc(-c2ccc(C(F)(F)F)cc2)sc1CN1CCc2ccc(OCC(=O)O)cc2CC1 [compound 5]
10 | > 3000 nM | > 3000 nM | > 1000 nM | O=C(O)COc1ccc2c(c1)CCN(Cc1ccc(-c3ccc(C(F)(F)F)cc3)cc1)CC2 [compound 40]
11 | > 3000 nM | > 3000 nM | > 3000 nM | O=C(O)COc1ccc2c(c1)CCN(Cc1cccc(-c3ccc(C(F)(F)F)cc3)n1)CC2 [compound 43]
12 | > 3000 nM | > 3000 nM | > 1000 nM | O=C(O)COc1ccc2c(c1)CCN(Cc1ccnc(-c3ccc(C(F)(F)F)cc3)n1)CC2 [compound 41]
13 | > 3000 nM | > 3000 nM | 398 nM | Cc1cc(-c2ccc(C(F)(F)F)cc2)sc1CN1CCc2ccc(OC(C)(C)C(=O)O)cc2CC1 [compound 14]
14 | > 3000 nM | > 3000 nM | 373 nM | O=C(O)COc1ccc2c(c1)CCN(Cc1ccc(-c3ccc(OC(F)(F)F)cc3)o1)CC2 [compound 34]
15 | > 1000 nM | > 3000 nM | 122 nM | CC(C)(Oc1ccc2c(c1)CCN(Cc1cc(-c3ccc(C(F)(F)F)cc3)on1)CC2)C(=O)O [compound 12]
16 | > 3000 nM | > 1000 nM | 0.92 nM | CC(c1ccc(-c2ccc(C(F)(F)F)cc2)s1)N1CCc2ccc(OCC(=O)O)cc2CC1 (single isomer, unassigned) [27a]
17 | 31 nM | > 1000 nM | 18 nM | O=C(O)C1(Oc2ccc3c(c2)CCN(Cc2ccc(-c4ccc(C(F)(F)F)cc4)o2)CC3)CC1 [compound 38]
18 | > 3000 nM | > 3000 nM | 174 nM and 193 nM | Cc1cc(-c2ccc(C(F)(F)F)cc2)sc1CN1CCc2ccc(OCC(=O)O)cc2CC1 [compound 13]
19 | 546 nM and 758 nM | > 3000 nM | 34.1 nM and 66.6 nM | O=C(O)COc1ccc2c(c1)CCN(Cc1cc(-c3ccc(C(F)(F)F)cc3)ns1)CC2 [compound 1]
20 | > 3000 nM | > 3000 nM | 162 nM | CC(C)(Oc1ccc2c(c1)CCN(Cc1cc(-c3ccc(C(F)(F)F)cc3)ns1)CC2)C(=O)O [compound 2]
21 | > 3000 nM | > 3000 nM | 95.2 nM | CC(C)(Oc1ccc2c(c1)CCN(Cc1nc(-c3ccc(C(F)(F)F)cc3)ns1)CC2)C(=O)O [compound 4]
22 | > 3000 nM | > 3000 nM | < 3 nM | CC(c1ccc(-c2ccc(C(F)(F)F)cc2)o1)N1CCc2ccc(OCC(=O)O)cc2CC1 (stereo not drawn) [compound 28]
